The results in this text go back to patent publication US4620005A, “1-isopropyl-4[(4-tetrahydro-1-naphthoyloxy phenyl)(alkylene)-carbonyl(oxymethlcarbonyl)]piperazines having chymotrypsin-inhibitory activity” (Kowa Co., Ltd., priority 1983, dated 1986).

Where a name gives a salt, the structure may show the parent alone.

The assay has as its target chymotrypsin (Bos taurus, UniProt P00766). Description: chymotrypsin inhibitory effect (procedure of Muramatsu et al; acetyl-L-tyrosine ethyl ester substrate, Hestrin colour development). It is filed as biochemical. The following applies: 10 min preincubation; 25 mM acetyl-L-tyrosine ethyl ester; 0.1M Tris-HCl pH 8.0; 37° C., 30 min; absorbance 530 nm; read-out: Inhibitory Activity [50% Inhibitory Concentration (M)]. The protocol: Some selected compounds of this invention were tested with respect to their chymotrypsin inhibitory effects.
The tests were conducted in accordance with the procedure of Muramatsu et al [The Journal of Biochemistry, 62, 408 (1967)]. A mixture was prepared which was made up of 0.1 ml of a dimethylsulfoxide solution of each test compound, 0.1 ml of water and 0.1 ml of a buffer solution containing 10 μg/ml of chymotrypsin (0.1M Tris-HCl buffer, pH 8.0). The mixture was incubated for 10 minutes, followed by addition of 0.2 ml of a buffer solution containing 25 mM of an ethyl ester of acetyl-L-tyrosine. The resulting mixture was reacted at 37° C. for 30 minutes. The remaining substrate was caused to develop a color by the Hesterin method, whereupon its absorbance was measured at 530 nm. As a comparative compound, use was made of tosylphenylalanine chloromethyl ketone (TPCK) which is known as an inhibitor for chymotrypsin.
The results are shown in Table 1 in which the numbers of the test compounds are indicated as those of the corresponding examples given hereunder.
In the case of `CC(C)N1CCN(C(=O)COC(=O)c2ccc(OC(=O)C3CCCc4ccccc43)cc2)CC1` (centres unmarked) [Example 5], the IC50 turned out to be 3e-08 M. Take `CC(C)N1CCN(CC(=O)Nc2ccc(OC(=O)C3CCCc4ccccc43)cc2)CC1` (centres unmarked) [Example 1, 1-Isopropyl-4-[{4-(1,2,3,4-tetrahydro-1-naphthoyloxy)-phenyl}carbamoylmethyl]piperazine.dihydrochloride]: the IC50 amounted to 4e-06 M.

For `CC(C)N1CCN(C(=O)C=Cc2ccc(OC(=O)C3CCCc4ccccc43)cc2)CC1` (centres unmarked) [Example 2], the IC50 stood at 3e-06 M. Then `CN1CCN(C(=O)C=Cc2ccc(OC(=O)C3CCCc4ccccc43)cc2)CC1` (centres unmarked) [Example 4], with 6e-07 M. In the case of `CC(C)N1CCN(CCNC(=O)c2ccc(OC(=O)C3CCCc4ccccc43)cc2)CC1` (centres unmarked) [Example 3], the IC50 came out at 7e-07 M.
